In patent US20080275226A1, “Medical Use of Paeoniflorin” (priority 2004, published 2008):
Entries after “also recorded” stand apart in the source; their conditions may differ.

Key:
permanent MCAO model = test: Permanent focal cerebral ischemia model (permanent MCAO); format: in vivo, rat
[1] = Blood pressure and heart rate of conscious rat (tail sleeve sensor); format: in vivo; conditions: 10, 40, 160 mg kg^−1 i.v., 5 min to 2 hr after administration
Method: The conscious rats are used as research subject, sensors of tail sleeve are used to transduce the pressure pulse to phototriodes and convert it into corresponding blood pressure and heart rate values. When the rats calm down, their blood pressure and heart rate values are recorded as the base values. Then, physiological saline, various doses of paeoniflorin and reserpine are injected through caudal vein respectively.
The changes of blood pressure and heart rate before the administration (0 min) and after the administration (5 min to 2 hr) are recorded.
The conscious rats were used as research subject, sensor of tail sleeve were used to transduce the pressure pulse to phototriodes and converted it into corresponding blood pressure value and heart rate values. When the rats calmed down, their blood pressure and heart rate value were recorded as the base values. Then, physiological saline, paeoniflorin (10, 40, 160 mg kg^−1) and reserpine were injected through caudal vein respectively.
The changes of blood pressure and heart rate before the administration (0 min) and after the administration (5 min to 2 hr) were recorded.

A1R [2] = target: T1, A1R (Rattus norvegicus, UniProt P25099); test: Competitive binding with [3H]-NECA, high-affinity site (two-site fit), rat cerebral cortex synaptic membranes
T1 construct: Synaptic membranes of rat cerebral cortex are employed in the assay; from tissue; host or cells: rat cerebral cortex synaptic membranes
T1 sequence (P25099 1-326): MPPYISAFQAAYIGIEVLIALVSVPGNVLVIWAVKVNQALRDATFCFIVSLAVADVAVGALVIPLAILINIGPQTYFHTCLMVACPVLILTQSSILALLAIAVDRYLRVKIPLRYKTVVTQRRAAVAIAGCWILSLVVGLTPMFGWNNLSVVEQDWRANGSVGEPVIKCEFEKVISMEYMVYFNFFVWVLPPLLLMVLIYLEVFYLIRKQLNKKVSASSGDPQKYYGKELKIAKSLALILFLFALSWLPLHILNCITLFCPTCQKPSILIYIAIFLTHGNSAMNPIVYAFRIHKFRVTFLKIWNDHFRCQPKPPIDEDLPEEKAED
Method: (§1) Synaptic membranes of rat cerebral cortex are employed in the assay. After decapitation of the rat, cerebral cortex is separated and homogenized sufficiently in 1:15 (W/V) sucrose solution, after centrifuged, the supernatant is taken and centrifuged again. After discarding the supernatant, the sediment is resuspended in 1:30 (W/V) Tris-HCl buffer (50 mM, PH 7.4), homogenized, washed and then centrifuged, after repeating the wash process 3 times, the sediment is resuspended in 1:5 (W/V) Tris-HCl buffer (50 mM, PH 7.4) again and subpakaged, stored at −80° C. The protein concentration is measured by Bradford method (Bradford M M. A rapid and sensitive method for the quantitation of microgram quantities of proteins utilizing the principle of protein-dye binding. Anal Biochem. 1976; 72: 248-254.). All the above procedures are operated at 4° C.
(§2) The above model is used to evaluate the competitive binding of paeoniflorin with the A1R and A2aR receptor mixed agonist [^3H]-ethyl amide adenosine ([3H]-NECA) and the A1R receptor selective agonist [3H]-CCPA.
(§3) After decapitation of the rat, cerebral cortex was separated immediately, and put it into ice-cold physiological saline. […] The protein concentration was measured by Bradford method. […]

A2AR = target: T2, A2AR (Rattus norvegicus, UniProt P30543); test: Competitive binding with [3H]-NECA, low-affinity site (two-site fit), rat cerebral cortex synaptic membranes; conditions: two-site competition fit, site 2; 25 nmol/L [3H]-NECA; rat cerebral cortex synaptic membrane; read-out: EC502, competitive binding with [3H]-NECA
T2 construct: Synaptic membranes of rat cerebral cortex are employed in the assay; from tissue; host or cells: rat cerebral cortex synaptic membranes
Method: as §1, §2, §3

transient MCAO rats = test: Transient focal cerebral ischemia model (transient MCAO); format: in vivo; conditions: transient MCAO rat
[3] = system: mouse PD model induced by MPTP; test: MPTP-induced mouse PD model (pole test, TH staining); format: in vivo; conditions: 5 mg·kg^−1 s.c. for 11 days, C57B1/6J mice
Method: The mouse PD model induced by 1-methyl-4-phenyl-1,2,3,6-tetrahydro-pyridine (MPTP) is used to test the effect of paeoniflorin on the ability of climbing pole and the deletion of dopamine neuron of substantia nigra of midbrain in the PD model mouse. Male C57B1/6J mice of 20-25 g are used. The climbing pole time of the mice are measured before experiment. The mice are divided into 5 groups according to the climbing pole time and there are 8 mice in each group. Low dose and middle dose paeoniflorin are administered by subcutaneous injection for 11 days continuously, and 1-methyl-4-phenyl-1,2,3,6-tetrahydro-pyridine (MPTP) is injected intraperitoneally (ip) at 2 hours intervals for 4 times on day 8 of the experiment to induce mouse PD model.
The motor activity of the mice are measured by pole test, the mice are put on to the vertical coarse pole of 55 cm long and 8 mm diameter with head downward, and the time that the mice go downward to all the limbs contact the ground is measured (Hamaue N, Minami M, Terado M, Hirafuji M, Endo T, Machida M, Hiroshige T, Ogata A, Tashiro K, Saito H, Parvez S H. Comparative study of the effects of isatin, an endogenous MAO-inhibitor, and selegiline on bradykinesia and dopamine levels in a rat model of Parkinson's disease induced by the Japanese encephalitis virus. Neurotoxicology. 2004 January; 25(1-2):205-13.).
Male C57B1/6J mice of 20-25 g were used. The climbing pole time of the mice was measured before experiment. The mice were divided into 5 groups according to the climbing pole time and there were 8 mice in each group. Paeoniflorin (2.5 mg kg^−1, 5 mg kg^−1) were administered by subcutaneous injection for 11 days continuously, and 1-methyl-4-phenyl-1,2,3,6-tetrahydro-pyridine (MPTP) was injected intraperitoneally (ip) at 2 hours intervals for 4 times on day 8 of the experiment to induce mouse PD model. The administration schedule was as follows:
The mice were put on to the vertical coarse pole of 55 cm long and 8 mm diameter with head downward, and the time that the mice went downward to all the limbs contacted the ground was measured.
The heart was perfused with 4% paraformaldehyde to be pro-fixed, and then the cerebrum was taken out, and post-fixed with 4% formaldehyde solution for 1 week. Coronal sections were performed continuously (section thick […]). Tyrosine hydroxylase (TH) was used as the specific marker of dopamine neuron. The primary antibody was monoclonal mouse TH antibody (1:1000, Sigma), the second antibody was Alexa fluor 488 fluorescence labeled goat anti-mouse (1:1000, Molecular Probes). Photographs were taken under fluorescence microscope (Olympus DP70), and TH positive cells of substantia nigra were counted.

A1R [4] = target: T1, A1R; test: Competitive binding with [3H]-CCPA, rat cerebral cortex synaptic membranes; conditions: 0.2 nmol/L [3H]-CCPA; rat cerebral cortex synaptic membrane
Method: as §1, §2, §3

T2 sequence (P30543 whole entry): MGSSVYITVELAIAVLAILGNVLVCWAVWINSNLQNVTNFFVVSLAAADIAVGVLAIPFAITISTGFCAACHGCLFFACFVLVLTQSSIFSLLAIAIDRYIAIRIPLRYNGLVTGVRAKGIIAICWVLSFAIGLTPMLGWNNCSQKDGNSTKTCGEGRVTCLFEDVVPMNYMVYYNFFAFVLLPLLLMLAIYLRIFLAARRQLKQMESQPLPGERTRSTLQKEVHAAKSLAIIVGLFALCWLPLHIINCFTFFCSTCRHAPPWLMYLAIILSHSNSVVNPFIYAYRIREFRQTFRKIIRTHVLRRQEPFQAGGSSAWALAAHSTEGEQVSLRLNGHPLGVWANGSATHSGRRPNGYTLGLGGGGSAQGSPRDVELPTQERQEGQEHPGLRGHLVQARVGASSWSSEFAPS

| Compound | effect of DPCPX on the protection by paeoniflorin (permanent MCAO model; DPCPX s.c. 15 min before ischemia + paeoniflorin 10 mg·kg^−1 s.c.) | blood pressure of conscious rats [1] | heart rate of conscious rats [1] | blood pressure of conscious rats ([1]; listed as Paeoniflorin) | heart rate of conscious rats ([1]; listed as Paeoniflorin) | selectivity EC502/EC501 (A1R [2]; A1R over A2AR, [3H]-NECA two-site fit) [times] | EC50 (A1R [2]; two-site competition fit, site 1, 25 nmol/L [3H]-NECA, rat cerebral cortex synaptic membrane, read-out: EC501, competitive binding with [3H]-NECA) [nM] | EC50 (A2AR) [nM] | neurological symptom (neurological defect score) (transient MCAO rats; 5 mg·kg^−1 s.c. at 15 min and 6 h after ischemia) | injury of cerebral subcortical nucleus and cerebral cortex caused by ischemia (transient MCAO rats; 5 mg·kg^−1 s.c., TTC staining) | injury of cerebral subcortical nucleus and cerebral cortex caused by ischemia, dose dependence (permanent MCAO model; 2.5, 5, 10 mg·kg^−1 s.c., TTC staining) | deletion of dopaminergic neuron induced by MPTP (TH staining, substantia nigra) [3] | motor dysfunction (bradykinesia) caused by MPTP, pole test [3] | deletion of dopaminergic neuron induced by MPTP (TH staining, substantia nigra) ([3]; listed as Paeoniflorin) | motor dysfunction (bradykinesia) caused by MPTP, pole test ([3]; listed as Paeoniflorin) | EC50 (A1R [4]) [nM] |
| --- | --- | --- | --- | --- | --- | --- | --- | --- | --- | --- | --- | --- | --- | --- | --- | --- |
| CCCn1c(=O)c2[nH]c(C3CCCC3)nc2n(CCC)c1=O [DPCPX] | this effect can be antagonized; also recorded: block the protection of paeoniflorin; also recorded: this effect could be inhibited |  |  |  |  |  |  |  |  |  |  |  |  |  |  |  |
| β-D-Glucopyranoside,56-[(benzoyloxy)methyl]tetrahydro-5-hydroxy-2-methyl-2,5-methano-1H-3,4-dioxacyclobuta[cd]Pentalen-1a(2H)-yl,[lar-claα,2β,3aα,5aα,5bα]] [paeoniflorin] |  | does not affect | does not affect | did not affect | did not affect | 360 | 13.9 | 5000 | improves the neurological symptom; also recorded: obviously improved the neurological symptom | significantly decreases the injury; also recorded: significantly decreased the defect | decreases the injury of cerebral subcortical nucleus and cerebral cortex caused by ischemia dose-dependently; also recorded: dose-dependently decreased the defect | antagonize the deletion of dopaminergic neuron | significantly improve the motor dysfunction | significantly antagonized | significantly antagonized | 19.8 |
